Results: ChEMBL document CHEMBL3227982, “Synthesis of some 4-substituted 8-amino-6-methoxyquinolines as potential antimalarials” (J Med Chem, 1979)
Calls of active or inactive are those of the source. The calls are words filed in the database; no cut-off is given here.

Key:
Plasmodium berghei [1] = assay: Antimalarial activity against blood schizonticidal Plasmodium berghei infected in mouse assessed as change in host mean survival time at 20 mg/kg; type: functional
Plasmodium berghei [2] = assay: Antimalarial activity against blood schizonticidal Plasmodium berghei infected in mouse assessed as change in host mean survival time at 40 mg/kg; type: functional
Plasmodium berghei [3] = assay: Antimalarial activity against blood schizonticidal Plasmodium berghei infected in mouse assessed as change in host mean survival time at 80 mg/kg; type: functional
Plasmodium berghei [4] = assay: Antimalarial activity against blood schizonticidal Plasmodium berghei infected in mouse assessed as change in host mean survival time at 160 mg/kg; type: functional
Plasmodium berghei [5] = assay: Antimalarial activity against blood schizonticidal Plasmodium berghei infected in mouse assessed as change in host mean survival time at 320 mg/kg; type: functional
Plasmodium berghei [6] = assay: Antimalarial activity against blood schizonticidal Plasmodium berghei infected in mouse assessed as change in host mean survival time at 640 mg/kg; type: functional
Plasmodium cynomolgi [7] = assay: Antimalarial activity against Plasmodium cynomolgi infected in rhesus monkey assessed as curative activity without disease relapses until 90 days at 0.25 mg/kg administered qd for 7 days via stomach tube; type: functional, organism-based; design: dose 0.25 mg/kg
Plasmodium cynomolgi [8] = assay: Antimalarial activity against Plasmodium cynomolgi infected in rhesus monkey assessed as curative activity without disease relapses until 90 days at 0.125 mg/kg administered qd for 7 days via stomach tube; type: functional, organism-based; design: dose 0.125 mg/kg
Plasmodium cynomolgi [9] = assay: Antimalarial activity against Plasmodium cynomolgi infected in rhesus monkey assessed as disease relapsing day at 0.25 mg/kg administered qd for 7 days via stomach tube; type: functional
Plasmodium cynomolgi [10] = assay: Antimalarial activity against Plasmodium cynomolgi infected in rhesus monkey assessed as disease relapsing day at 0.5 mg/kg administered qd for 7 days via stomach tube; type: functional
Plasmodium cynomolgi [11] = assay: Antimalarial activity against Plasmodium cynomolgi infected in rhesus monkey assessed as disease relapsing day at 1 mg/kg administered qd for 7 days via stomach tube; type: functional
Plasmodium cynomolgi [12] = assay: Antimalarial activity against Plasmodium cynomolgi infected in rhesus monkey assessed as curative activity without disease relapses until 90 days at 1 mg/kg administered qd for 7 days via stomach tube; type: functional, organism-based; design: dose 1 mg/kg
Mus musculus [13] = assay: Toxicity in mouse infected with blood schizonticidal Plasmodium berghei assessed as mortality at 640 mg/kg measured on days 2 to 5 after infection; type: organism-based; design: dose 640 mg/kg; details: in vivo
Mus musculus [14] = assay: Toxicity in mouse infected with blood schizonticidal Plasmodium berghei assessed as mortality at 320 mg/kg measured on days 2 to 5 after infection; type: organism-based; design: dose 320 mg/kg; details: in vivo
Mus musculus [15] = assay: Toxicity in mouse infected with blood schizonticidal Plasmodium berghei assessed as mortality at 160 mg/kg measured on days 2 to 5 after infection; type: organism-based; design: dose 160 mg/kg; details: in vivo
Plasmodium cynomolgi [16] = assay: Antimalarial activity against Plasmodium cynomolgi infected in rhesus monkey assessed as curative activity without disease relapses until 90 days at 0.375 mg/kg administered qd for 7 days via stomach tube; type: functional, organism-based; design: dose 0.375 mg/kg
Plasmodium cynomolgi [17] = assay: Antimalarial activity against Plasmodium cynomolgi infected in rhesus monkey assessed as curative activity without disease relapses until 90 days at 0.75 mg/kg administered qd for 7 days via stomach tube; type: functional, organism-based; design: dose 0.75 mg/kg
Plasmodium cynomolgi [18] = assay: Antimalarial activity against Plasmodium cynomolgi infected in rhesus monkey assessed as disease relapsing day at 0.375 mg/kg administered qd for 7 days via stomach tube; type: functional
Mus musculus [19] = assay: Toxicity in mouse infected with blood schizonticidal Plasmodium berghei assessed as mortality at 80 mg/kg measured on days 2 to 5 after infection; type: organism-based; design: dose 80 mg/kg; details: in vivo
Plasmodium cynomolgi [20] = assay: Antimalarial activity against Plasmodium cynomolgi infected in rhesus monkey assessed as disease relapsing day at 0.125 mg/kg administered qd for 7 days via stomach tube; type: functional
[21] = tested on: Plasmodium berghei yoelii; assay: Antimalarial activity against sporozite stage of Plasmodium berghei yoelii infected in mouse assessed as curative activity at 160 mg/kg, po; type: functional, organism-based; design: dose 160 mg/kg
[22] = tested on: Plasmodium berghei yoelii; assay: Antimalarial activity against sporozite stage of Plasmodium berghei yoelii infected in mouse assessed as host survival at 10 to 40 mg/kg, po; type: functional, organism-based
[23] = tested on: Plasmodium berghei yoelii; assay: Antimalarial activity against sporozite stage of Plasmodium berghei yoelii infected in mouse assessed as host survival at 10 to 160 mg/kg, sc; type: functional, organism-based

| Structure (SMILES) | MST (Plasmodium berghei [1]) [days] | MST (Plasmodium berghei [2]) [days] | MST (Plasmodium berghei [3]) [days] | MST (Plasmodium berghei [4]) [days] | MST (Plasmodium berghei [5]) [days] | MST (Plasmodium berghei [6]) [days] | Time (Plasmodium cynomolgi [10]) [days] | Activity (Mus musculus [13]) | also measured |
| --- | --- | --- | --- | --- | --- | --- | --- | --- | --- |
| CCc1ccnc2c(NCCCCCCN(CC)CC)cc(OC)cc12 | 0.5 | 1.7 | 3.3 | 5.5 | 6.7 | 7.9 | – | – | – |
| CCc1ccnc2c(NC(C)CCCN)cc(OC)cc12 (configuration not stated) | 2.8 | 3.8 | 5.2 | 6.4 | 11.5 | – | 28 | – | Activity (Plasmodium cynomolgi [7]): inactive; Activity (Plasmodium cynomolgi [8]): inactive; Time (Plasmodium cynomolgi [9]): 7 days; Time (Plasmodium cynomolgi [11]): 37 days |
| COc1cc(NC(C)CCCN)c2nccc(CCSc3ccc(F)cc3)c2c1 (configuration not stated) | – | – | – | – | – | – | 7 | – | Activity (Plasmodium cynomolgi [7]): inactive; Activity (Plasmodium cynomolgi [12]): inactive; Time (Plasmodium cynomolgi [9]): 13 days; Time (Plasmodium cynomolgi [11]): 6 days |
| CCc1ccnc2c(NCCCCCCN3CCN(CCO)CC3)cc(OC)cc12 | 0.1 | 0.7 | 2.7 | 2.5 | 4.1 | – | – | Toxic | – |
| COc1cc(NC(C)CCCN)c2nccc(CCSc3ccc(Cl)cc3)c2c1 (configuration not stated) | 2.3 | 3.3 | 6.3 | 7.7 | 8.9 | 14.6 | – | – | – |
| C=Cc1ccnc2c(NC(C)CCCN)cc(OC)cc12 (configuration not stated) | 1.1 | 1.7 | 5.9 | 8.7 | 7.7 | – | 10 | Toxic | Activity (Mus musculus [14]): Toxic; Activity (Plasmodium cynomolgi [7]): inactive; Time (Plasmodium cynomolgi [9]): 7 days; Time (Plasmodium cynomolgi [11]): 24 days |
| CCc1ccnc2c(NC(C)CCCN(CC)CC)cc(OC)cc12 (configuration not stated) | 1.1 | 1.5 | 3.7 | 6.6 | – | – | – | Toxic | Activity (Mus musculus [14]): Toxic |
| CCc1ccnc2c(NC(C)CCCNC(C)C)cc(OC)cc12 (configuration not stated) | -0.3 | 2.3 | 3.5 | 6.7 | 10.5 | – | – | Toxic | – |
| COc1cc(NC(C)CCCN)c2ncccc2c1 (configuration not stated) [PRIMAQUINE] | 4 | 5 | 9.4 | – | – | – | 11 | Toxic | Activity (Mus musculus [15]): Toxic; Activity (Mus musculus [14]): Toxic; Activity (Plasmodium cynomolgi [16]): inactive; Activity (Plasmodium cynomolgi [17]): Active; Time (Plasmodium cynomolgi [18]): 11 days |
| CCc1ccnc2c(NCCCCCCN)cc(OC)cc12 | – | 0.8 | 4.8 | – | – | – | – | – | Activity (Mus musculus [19]): Toxic; Activity (Mus musculus [15]): Toxic |
| COc1ccc(SCCc2ccnc3c(NC(C)CCCN)cc(OC)cc23)cc1 (configuration not stated) | 0.1 | 0.3 | 2.1 | 2.7 | 6.1 | 7.5 | – | – | Time (Plasmodium cynomolgi [20]): 9 days; Activity [21]: Active; Activity [22]: inactive; Activity [23]: inactive |
| CCc1ccnc2c(NCCCCN)cc(OC)cc12 | 0.9 | 1.7 | 2.1 | 2.9 | 6.3 | 7.9 | – | Non-toxic | – |
